Laboratory results reported in patent publication US12371454B2, “Cyclic peptide compound having Kras inhibitory action” (priority 2019, dated 2025).
Positions of bridges follow the written chain, without caps; N, C: chain ends. Non-standard residues stand in square brackets, D forms with d. Residues, ends and D or L forms follow the SMILES beside them. *: point of attachment. hPhe(3,5-F2-4-CF3) = N[C@@H](CCc1cc(F)c(C(F)(F)F)c(F)c1)C(=O)O; hPhe(3-Cl-4-CF3) = N[C@@H](CCc1ccc(C(F)(F)F)c(Cl)c1)C(=O)O; NMePhe(4-CF3) = CN[C@@H](Cc1ccc(C(F)(F)F)cc1)C(=O)O; Phe(2-F,5-Br) = N[C@@H](Cc1cc(Br)ccc1F)C(=O)O; 3Oxa8azabicyclo(3.2.1)octane = C1CC2COCC1N2*; NMeAbu(4,4,4-F3) = CN[C@@H](CC(F)(F)F)C(=O)O; NMeGly(cPent) = CN[C@H](C(=O)O)C1CCCC1; Phe(3-I) = N[C@@H](Cc1cccc(I)c1)C(=O)O; Pro(4,4-F2) = O=C(O)[C@@H]1CC(F)(F)CN1; NMeY = CN[C@@H](Cc1ccc(O)cc1)C(=O)O; NMeCha = CN[C@@H](CC1CCCCC1)C(=O)O; NMeChg = CN[C@H](C(=O)O)C1CCCCC1; NMeI = CC[C@H](C)[C@H](NC)C(=O)O; NMeD = CN[C@@H](CC(=O)O)C(=O)O; NMeL = CN[C@@H](CC(C)C)C(=O)O; NMeNva = CCC[C@H](NC)C(=O)O; NMeAbu = CC[C@H](NC)C(=O)O; Morpholide = C1CN(*)CCO1; NMeA = CN[C@@H](C)C(=O)O; NMeAib = CNC(C)(C)C(=O)O; Nle = CCCC[C@H](N)C(=O)O; Piperidide = C1CCN(*)CC1; Pra = C#CC[C@H](N)C(=O)O; Pyrrolidide = C1CCN(*)C1; Ac5c = NC1(C(=O)O)CCCC1; Aze = O=C(O)[C@@H]1CCN1; X1 = FC1(F)CN(*)CC1(F)F; Ac4c = NC1(C(=O)O)CCC1; Sar = CNCC(=O)O

Target: T1, Kras and SOS1 (biotin-tagged human Kras loaded with GDP, His-tagged human SOS1) (Homo sapiens, UniProt P01116, G12D)
T1 construct: made in house; host or cells: E. coli (stated for Kras only)
Experiment: Protein-protein interaction inhibition between Kras and SOS1 (KrasGl2D-SOS PPI) using AlphaScreen
Format: binding
Details: AlphaScreen; biotin-tagged human Kras loaded with GDP, His-tagged human SOS1; read-out: KRAS G12D-SOS PPI IC50
In short: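 Donor beads (nickel) hold His-SOS1; acceptor beads (streptavidin) hold biotin-Kras bound to GDP. Signal measured at 520-620 nm following 680 nm excitation.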

T1 sequence (P01116 1-188 isoform P01116-2 G12D): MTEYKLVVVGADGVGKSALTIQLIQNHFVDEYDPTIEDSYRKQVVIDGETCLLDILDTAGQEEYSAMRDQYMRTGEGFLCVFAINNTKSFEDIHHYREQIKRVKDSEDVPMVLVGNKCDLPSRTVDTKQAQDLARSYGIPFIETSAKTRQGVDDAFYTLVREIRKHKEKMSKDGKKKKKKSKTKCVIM

Structure (SMILES)	IC50 [pM]
CCC[C@H]1C(=O)N[C@@H]([C@@H](C)CC)C(=O)N(C)CC(=O)N(C)CC(=O)N(C)[C@@H](CC2CCCCC2)C(=O)N(C)CC(=O)N[C@@H](CCc2cc(F)c(C(F)(F)F)c(F)c2)C(=O)N2CC(F)(F)C[C@H]2C(=O)NC2(CCCC2)C(=O)N(C)[C@@H](C2CCCCC2)C(=O)N(C)[C@H](C(=O)N2CCCC2)CC(=O)N1C [Compound 1160] ([NMeNva]I[Sar][Sar][NMeCha][Sar][hPhe(3,5-F2-4-CF3)][Pro(4,4-F2)][Ac5c][NMeChg][NMeD]-Pyrrolidide; lactam N-11)	420
CC[C@H](C)[C@@H]1NC(=O)[C@H](CC(C)C)N(C)C(=O)C[C@@H](C(=O)N2CCCC2)N(C)C(=O)[C@H](C2CCCCC2)N(C)C(=O)C2(CCC2)NC(=O)[C@@H]2CC(F)(F)CN2C(=O)[C@H](CCc2ccc(C(F)(F)F)c(Cl)c2)NC(=O)CN(C)C(=O)[C@H](CC2CCCCC2)N(C)C(=O)CN(C)C(=O)CN(C)C1=O [Compound 1163] ([NMeL]I[Sar][Sar][NMeCha][Sar][hPhe(3-Cl-4-CF3)][Pro(4,4-F2)][Ac4c][NMeChg][NMeD]-Pyrrolidide; lactam N-11)	460
CC[C@H](C)[C@@H]1NC(=O)[C@H](CC(C)C)N(C)C(=O)C[C@@H](C(=O)N2CCCC2)N(C)C(=O)[C@H](C2CCCCC2)N(C)C(=O)C2(CCC2)NC(=O)[C@@H]2CCCN2C(=O)[C@H](CCc2cc(F)c(C(F)(F)F)c(F)c2)NC(=O)CN(C)C(=O)[C@H](CC2CCCCC2)N(C)C(=O)CN(C)C(=O)CN(C)C1=O [Compound 1165] ([NMeL]I[Sar][Sar][NMeCha][Sar][hPhe(3,5-F2-4-CF3)]P[Ac4c][NMeChg][NMeD]-Pyrrolidide; lactam N-11)	730
CC[C@H](C)[C@@H]1NC(=O)[C@H](CC(C)C)N(C)C(=O)C[C@@H](C(=O)N2CCCC2)N(C)C(=O)[C@H](C2CCCC2)N(C)C(=O)C2(CCCC2)NC(=O)[C@@H]2CC(F)(F)CN2C(=O)[C@H](CCc2cc(F)c(C(F)(F)F)c(F)c2)NC(=O)CN(C)C(=O)[C@H](CC2CCCCC2)N(C)C(=O)CN(C)C(=O)CN(C)C1=O [Compound 1166] ([NMeL]I[Sar][Sar][NMeCha][Sar][hPhe(3,5-F2-4-CF3)][Pro(4,4-F2)][Ac5c][NMeGly(cPent)][NMeD]-Pyrrolidide; lactam N-11)	470
CC[C@H](C)[C@@H]1NC(=O)[C@H](CC(C)C)N(C)C(=O)C[C@@H](C(=O)N2CC(F)(F)C(F)(F)C2)NC(=O)[C@H]([C@@H](C)CC)N(C)C(=O)C2(CCCC2)NC(=O)[C@@H]2CCCN2C(=O)[C@H](CCc2ccc(C(F)(F)F)c(Cl)c2)NC(=O)CN(C)C(=O)[C@H](CC2CCCCC2)N(C)C(=O)CN(C)C(=O)CN(C)C1=O [Compound 1168] ([NMeL]I[Sar][Sar][NMeCha][Sar][hPhe(3-Cl-4-CF3)]P[Ac5c][NMeI]D-X1; lactam N-11)	100000
C#CC[C@@H]1NC(=O)[C@H](Cc2cccc(I)c2)NC(=O)CN(C)C(=O)[C@H](Cc2ccc(OC)cc2)N(C)C(=O)CN(C)C(=O)CN(C)C(=O)[C@H]([C@@H](C)CC)NC(=O)[C@H](CC(C)C)N(C)C(=O)C[C@@H](C(=O)N2CCCCC2)N(C)C(=O)[C@H](CC(C)C)NC(=O)C(C)(C)N(C)C1=O [Compound 1169] ([NMeL]I[Sar][Sar][NMeY](Me)[Sar][Phe(3-I)][Pra][NMeAib]L[NMeD]-Piperidide; lactam N-11)	53000
CCCC[C@@H]1NC(=O)[C@H](Cc2cc(Br)ccc2F)NC(=O)CN(C)C(=O)[C@H](Cc2ccc(OC)cc2)N(C)C(=O)[C@@H]2CCN2C(=O)[C@H](C)N(C)C(=O)[C@H]([C@@H](C)CC)NC(=O)[C@H](CC)N(C)C(=O)C[C@@H](C(=O)N2CCCCC2)N(C)C(=O)[C@H](CC(C)C)NC(=O)C(C)(C)N(C)C1=O [Compound 1177] ([NMeAbu]I[NMeA][Aze][NMeY](Me)[Sar][Phe(2-F,5-Br)][Nle][NMeAib]L[NMeD]-Piperidide; lactam N-11)	12000
CC[C@H](C)[C@@H]1NC(=O)[C@H](CC(C)C)N(C)C(=O)C[C@@H](C(=O)N2C3CCC2COC3)N(C)C(=O)[C@H](C2CCCCC2)N(C)C(=O)C2(CCCC2)NC(=O)[C@@H]2CC(F)(F)CN2C(=O)[C@H](CCc2ccc(C(F)(F)F)c(Cl)c2)NC(=O)CN(C)C(=O)[C@H](CC2CCCCC2)N(C)C(=O)CN(C)C(=O)CN(C)C1=O [Compound 1179] ([NMeL]I[Sar][Sar][NMeCha][Sar][hPhe(3-Cl-4-CF3)][Pro(4,4-F2)][Ac5c][NMeChg][NMeD]-{3Oxa8azabicyclo(3.2.1)octane}; lactam N-11)	520
CC[C@H](C)[C@@H]1NC(=O)[C@H](CC(F)(F)F)N(C)C(=O)C[C@@H](C(=O)N2CCOCC2)N(C)C(=O)[C@H](C2CCCCC2)N(C)C(=O)C2(CCCC2)NC(=O)[C@@H]2CC(F)(F)CN2C(=O)[C@H](CCc2ccc(C(F)(F)F)c(Cl)c2)NC(=O)CN(C)C(=O)[C@H](Cc2ccc(C(F)(F)F)cc2)N(C)C(=O)CN(C)C(=O)CN(C)C1=O [Compound 1182] ([NMeAbu(4,4,4-F3)]I[Sar][Sar][NMePhe(4-CF3)][Sar][hPhe(3-Cl-4-CF3)][Pro(4,4-F2)][Ac5c][NMeChg][NMeD]-Morpholide; lactam N-11)	560
